From US4992257A, “Dihydroporphyrins and method of treating tumors” (Efamol Holdings PLC, priority 1988, dated 1991)

What was measured:
PC6 plasma cell tumour = experiment: Tumour photo-necrosis: depth of tumour necrosis after sensitiser injection and 10 J cm^-2 light; format: in vivo, female BALB/c mice; details: mean ± SE
Description: (§1) the method of testing is that the PC6 plasma cell tumour, obtained initially from the Chester Beatty Research Institute, was grown by inoculating 0.3-0.6×10^6 cells subcutaneously in female BALB/c mice. It was used about two weeks later, when it was […] in its longest diameter and […] deep. Sensitisers were injected in dimethyl sulphoxide intra-peritoneally (2.5 ul g^-1) and, twenty four hours later, skin over the tumours was depilated, the mice anaesthetised and tumours exposed to 10 J cm^-2 light. Wavelengths for illumination were the longest wavelength absorption peaks in the red in solutions of sensitiser in fetal calf serum, and were 652-653 nm for the compounds of Examples 1 to 3 and 741 nm for the compound of Example 4. The light source was a copper vapour laser with an output of 10 to 12 watts (Cu 10 laser, Oxford Lasers Ltd) pumping a D2 10K dye laser (Oxford Lasers Ltd). The dye was rhodamine 640 (Applied Photophysics Ltd) for illumination at 652-653 nm and LDS-722 for illumination at 741 nm. Light intensity at the tumour surface was kept below 0.3 W cm^-2, where thermal effects were undetectable.
Twenty four hours after illumination […], 0.2 ml 1% Evans blue (Sigma) in saline was given intravenously and tumours were removed one hour later and fixed in formolsaline. The fixed tumours were sliced at right angles to the surface and the depth of necrosis measured with a dissecting microscope fitted with an eye piece graticule.

[1] = Longest wavelength absorption peak in the red in fetal calf serum; format: physicochemical; details: in solutions of sensitiser in fetal calf serum
Description: as §1

Tumour = experiment: Degree of tumour necrosis obtained at an equivalent muscle damage level; format: in vivo; details: for tumour necrosis for specified levels of muscle damage, in words: versus corresponding compounds of EP-A-0,186,962
From the text: (§2) In preliminary tests the new compounds have shown similar results as regards skin sensitivity to those given in EP-A-0,186,962. Moreover, the para and meta dihydroxy compounds have been shown specifically, improved properties in other respects which may be expected in all the compounds.

[2] = Muscle oedema (muscle damage) for specified depths of tumour necrosis; format: in vivo; details: for muscle damage for specified levels of tumour necrosis, in words: versus corresponding compounds of EP-A-0,186,962
From the text: as §2

[3] = at muscle oedema 10% increase in muscle weight
[4] = at muscle oedema 20% increase in muscle weight
[5] = at depth of tumour necrosis 3.5 mm
[6] = at depth of tumour necrosis 4.0 mm
[7] = at depth of tumour necrosis 5.0 mm
[8] = at depth of tumour necrosis 5.5 mm
[9] = at depth of tumour necrosis 3.0 mm

| Compound | Tumour Necrosis (Tumour; [3]) | Tumour Necrosis (Tumour; [4]) | tumour necrosis for specified levels of muscle damage, in words (Tumour) | Muscle Oedema (% Increase in Weight) [2, 5] | Muscle Oedema (% Increase in Weight) [2, 6] | Muscle Oedema (% Increase in Weight) [2, 7] | Muscle Oedema (% Increase in Weight) [2, 8] | muscle damage for specified levels of tumour necrosis, in words [2] | Muscle Oedema (% Increase in Weight) [2, 9] | other results |
| --- | --- | --- | --- | --- | --- | --- | --- | --- | --- | --- |
| Oc1cccc(-c2c3nc(c(-c4cccc(O)c4)c4ccc([nH]4)c(-c4cccc(O)c4)c4nc(c(-c5cccc(O)c5)c5ccc2[nH]5)CC4)CC3)c1 [Example 4, 7,8,17,18-tetrahydro-5,10,15,20-tetra(m-hydroxyphenyl) porphyrin] | – | – | – | – | – | – | – | – | – | Depth of Tumour Necrosis (PC6 plasma cell tumour; dose 0.39 μM/Kg i.p., 741 nm): 5.22 ± 1.21 mm; longest wavelength absorption peak in the red [1]: 741 nm |
| Oc1cccc(-c2c3nc(c(-c4cccc(O)c4)c4ccc([nH]4)c(-c4cccc(O)c4)c4nc(c(-c5cccc(O)c5)c5[nH]c2CC5)C=C4)C=C3)c1 [Example 2, 2,3-dihydro-5,10,15,20-tetra(m-hydroxyphenyl) porphyrin] | 5.5-6 mm | 6.5 mm | more tumour necrosis than the corresponding compounds of EP-A-0,186,962 | 2% | 3% | 5% | 7% | considerably less muscle damage than the corresponding compounds of EP-A-0,186,962 | – | Depth of Tumour Necrosis (PC6 plasma cell tumour; dose 0.375 μM/Kg i.p., 652 nm): 3.79 ± 0.28 mm; Depth of Tumour Necrosis (PC6 plasma cell tumour; dose 0.75 μM/Kg i.p., 652 nm): 5.41 ± 0.39 mm |
| Oc1ccc(-c2c3nc(c(-c4ccc(O)cc4)c4ccc([nH]4)c(-c4ccc(O)cc4)c4nc(c(-c5ccc(O)cc5)c5ccc2[nH]5)C=C4)C=C3)cc1 [Para (Compounds of EP-A-0186962), 5,10,15,20-Tetra(p-hydroxyphenyl)porphyrin, reference compound] | 2.25 mm | 3.0 mm | – | 22% | – | – | – | – | 20% | – |
| Oc1cccc(-c2c3nc(c(-c4cccc(O)c4)c4ccc([nH]4)c(-c4cccc(O)c4)c4nc(c(-c5cccc(O)c5)c5ccc2[nH]5)C=C4)C=C3)c1 [Meta (Compounds of EP-A-0186962), 5,10,15,20-tetra(m-hydroxyphenyl) porphyrin, reference compound] | 3.5 mm | 4.0 mm | – | 10% | 20% | 36% | 49% | – | – | – |
| Oc1ccc(-c2c3nc(c(-c4ccc(O)cc4)c4ccc([nH]4)c(-c4ccc(O)cc4)c4nc(c(-c5ccc(O)cc5)c5ccc2[nH]5)CC4)C=C3)cc1 [Example 1, 2,3-dihydro-5,10,15,20-tetra(p-hydroxyphenyl) porphyrin] | 3.5 mm | ~4.0 mm | more tumour necrosis than the corresponding compounds of EP-A-0,186,962 | 10% | – | – | – | considerably less muscle damage than the corresponding compounds of EP-A-0,186,962 | 8% | Depth of Tumour Necrosis (PC6 plasma cell tumour; dose 3.125 μM/Kg i.p., 653 nm): 2.13 ± 0.50 mm; Depth of Tumour Necrosis (PC6 plasma cell tumour; dose 6.25 μM/Kg i.p., 653 nm): 3.50 ± 0.54 mm |
| Oc1ccccc1-c1c2nc(c(-c3ccccc3O)c3ccc([nH]3)c(-c3ccccc3O)c3nc(c(-c4ccccc4O)c4[nH]c1CC4)C=C3)C=C2 [Example 3, 2,3-dihydro-5,10,15,20-tetra (o-hydroxyphenyl) porphyrin] | – | – | – | – | – | – | – | – | – | Depth of Tumour Necrosis (PC6 plasma cell tumour; dose 3.125 μM/Kg i.p., 652 nm): 3.69 ± 0.74 mm; Depth of Tumour Necrosis (PC6 plasma cell tumour; dose 6.25 μM/Kg i.p., 652 nm): 4.16 ± 0.27 mm |
